The values that follow come from patent US4190642A, “Ocular therapeutic system for dispensing a medication formulation” (Alza Corporation, priority 1979, dated 1980).

Series [1] in a line: osmotic pressure (vapor pressure osmometer). It is filed as physicochemical. An excerpt: System 10 houses in depot 14 from about 1 to 40 weight percent of pilocarpine solute and from 1 to 25 weight percent of epinephrine solute, with the remaining weight percent of system 10 polymer 12. […] Generally, the pilocarpine solute and the epinephrine solute will have a particle size of about 0.1 to 100 microns, and a presently preferred particle size of about 0.5 to 20 microns. […] This application and the copending application are both assigned to the Alza Corporation of Palo Alto, California.
The osmotic pressure, ATM, of the above solutes can be measured in a commercially available osmometer that measures the vapor pressure difference between pure water and the solution containing a solute to be analyzed, and according to standard thermodynamic principles, the vapor pressure ratio is converted into osmotic pressure difference.

A further series in a line: solubility in water. From the text:
System 10 houses in depot 14 from about 1 to 40 weight percent of pilocarpine solute and from 1 to 25 weight percent of epinephrine solute, with the remaining weight percent of system 10 polymer 12. […] Generally, the pilocarpine solute and the epinephrine solute will have a particle size of about 0.1 to 100 microns, and a presently preferred particle size of about 0.5 to 20 microns. The osmotic delivery device consisting of sole drug solute of a specific particle size dispersed in a polymer is the invention of Michaels and Guillod as disclosed and claimed in copending U.S. Patent Application Ser. No. 855,605, filed on Nov. 29, 1977. This application and the copending application are both assigned to the Alza Corporation of Palo Alto, California.
Next, the contents of the bowl are removed, cut into 3 mm ×3 mm pieces with a multi-blade strip die and the strips fed to the hopper of an extruder. The pieces have a residence time of 5 minutes in the extruder with the screw of the extruder rotating at 20 rpm. A film is extruded through a 12 mil opening at the end of the extruder and punched into 13.5×5.8 mm inserts.

Where a name gives a salt, the structure may show the parent alone. Read-outs that look alike come from different tables or passages of the source.

As a reminder, the solubility is the concentration that dissolves in the medium under given conditions. The low end stands for a poorly soluble substance, the high end for a readily soluble substance.

For the compound `CNC[C@H](O)c1ccc(O)c(O)c1` [epinephrine bitartrate], the results for the osmotic pressure in series [1] and in series [1] (Example 5) were 78.5 atmospheres and 78.5 ATM, respectively. For the same compound, the solubility in the series “solubility in water” (water, solubility in water, 37° C.) is 670 mg/mL; in “solubility in water” (water, solubility, water solution) it was 670 mg/mL.

As for `CNC[C@H](O)c1ccc(O)c(O)c1` [epinephrine hydrochloride], the osmotic pressure in series [1] (hydrochloride) is reported as 185 atmospheres. Besides, the solubility in “solubility in water” (water solution, hydrochloride) is 80 grams in 100 ml of water solution.

Turning to `CC[C@@H]1C(=O)OC[C@@H]1Cc1cncn1C` [pilocarpine hydrochloride], in series [1] (hydrochloride), the osmotic pressure came to 300 atmospheres. The solubility in the series “solubility in water” (water) was 80 grams in 100 ml of water solution.

As to `CC[C@@H]1C(=O)OC[C@@H]1Cc1cncn1C` [pilocarpine nitrate], the osmotic pressure worked out at 37 atmospheres in series [1] and 37 ATM in series [1] (Example 5). Besides, the solubility is 27 grams in 100 ml of water solution in the series “solubility in water” (water) and 270 mg/mL in the series “solubility in water” (water, solubility in water).
